These results are taken from patent US10213432B2, “Dosage regimen for a PI-3 kinase inhibitor” (NOVARTIS AG, priority 2012, dated 2019).

Read-outs that look alike come from different tables or passages of the source.

For test [1], the system named is Hormone Receptor Positive (+) metastatic breast cancer. In kind it is in vivo, human. The conditions noted are these: in combination with letrozole 2.5 mg/day per oral. The protocol:
An open-label, randomized multi-institution clinical study using the hydrochloride salt of Compound A alone and in combination with the therapeutic agent letrozole for the treatment of post-menopausal patients with Hormone Receptor Positive (+) metastatic breast cancer is investigated. Patients are evaluated for safety profile/tolerability and preliminary antitumor effect.
Patients are included in the study if they meet the following criteria: at least 18 years of age, ECOG performance status 0-1, suffering from clinical stage 1V invasive mammary carcinoma (ER-positive, or PR-positive) by immunohistochemistry, life expectancy equal to or greater than 6 months, adequate hematologic, hepatic and renal function (ANC≥1500/mm^3, platelet count≥100,000 mm^3, HgB≥9 g/dL, creatine≤1.5×upper limits of normal, bilirubin≤1.5×upper limits of normal, SGOT, SGPT≤2.5×upper limits of normal if no liver metasis present or SGOT, SGPT alkaline phosphatase≤5×upper limits of normal if liver metasis present, capable of swallowing and retaining oral medication, disease free of prior invasive cancers for >5 years (exception of basal or squamous cancer of skin or cervical carcinoma in situ). Patients may receive concurrent radiation therapy to painful bone metastases or areas of impending bone fracture as long as radiation therapy is completed≤2 weeks prior to study and recovered from toxicity (≤grade 1) induced by this radiation treatment. Post-menopausal female subjects are defined prior to protocol enrollment by any of the following: Subjects at least 55 years of age; Subjects under 55 years of age and amenorrheic for at least 12 months or follicle-stimulating hormone (FSH) values[…] and estradiol levels≤20 IU/L; prior bilateral oophorectomy; prior radiation castration with amenorrhea for at least 6 months; current use of an LHRH agonist for more than 12 months.
Patients with the following mood disorders as judged by investigator or psychiatrist are also excluded: medically documented history of or active major depressive episode; bipolar disorder (I or II), obsessive-compulsive disorder, schizophrenia, a history of suicidal attempt or ideation, or homicidal ideation (immediate risk of doing harm to others); or ≥CTCAE grade 3 anxiety.
In the first stage of the study, safety and tolerability of the hydrochloride salt of Compound A is evaluated in combination with the therapeutic agent letrozole in post-menopausal patients with Hormone Receptor Positive (+) metastatic breast cancer is investigated. The maximum tolerated dose of the hydrochloride salt of Compound A […] is determined at dosages of 100 mg per oral daily, 80 mg per oral daily, and 50 mg per oral daily, in combination with letrozole administered at 2.5 mg/day per oral.
In the second stage of the study, the antitumor effect of the hydrochloride salt of Compound A in combination with letrozole for the treatment of post-menopausal patients with Hormone Receptor Positive (+) metastatic breast cancer is investigated. Patients are administered the hydrochloride salt of Compound A and letrozole at a daily dosage identified to be with in the MTD in the first stage (Arm A).
In one additional experimental arm (Arm C), Patients are administered a daily dosage of the hydrochloride salt of Compound A in the amount of 60, 80 or 100 mg per oral on Monday through Fridays only each week in combination with 2.5 mg/day per oral letrozole.
Secondary outcome for the second stage is progression free survival and response.
Following the above experiment, 51 patients were accrued, 49 progressed after aromatase inhibitor therapy. Median age was 56 years and 95% of patients ad bone metastasis and 70% visceral metastases.

Test [2] relates to solid tumors. The conditions noted are these: humans; Bendell et al., J. Clin. Oncology 2012; cited from earlier work.
[3] abbreviates: Arm C (31): 60, 80 or 100 mg per oral Monday through Fridays only.

Turning to `Nc1cc(C(F)(F)F)c(-c2cc(N3CCOCC3)nc(N3CCOCC3)n2)cn1` [Compound A, 5-(2,6-di-morpholin-4-yl-pyrimidin-4-yl)-4-trifluoromethyl-pyridin-2-ylamine], in test [1] (Arm A (20): daily dosing), the “Median TTP” value is reported as 4 (2-11) months, the “Patient outcomes: CR” value was found to be 1, the “Patient outcomes: PD” value is recorded as 7 and the “Patient outcomes: PR” value is 1. Further, in test [1] (Arm A (20): daily dosing), the “Patient outcomes: SD” value is reported as 9. Besides, in test [1] (setting [3]), the “Median TTP” value is given as “Not reached”, the “Patient outcomes: CR” value is on record as 0, the “Patient outcomes: PD” value amounted to 8 and the “Patient outcomes: PR” value is recorded as 0. Besides, the “Patient outcomes: SD” value in test [1] (setting [3]) is listed as 4. Also, the “efficacy in the treatment of solid tumors” value in test [2] is reported as “has been demonstrated in humans”.
